Test results taken from patent US20220289753A1, “SHP2 INHIBITORS” (IRBM S.P.A., priority 2019, published 2022).

The compounds below were run against T1, SHP-2 enzyme (Met1-Leu525) (Homo sapiens, UniProt Q06124) (assay: SHP2 inhibition enzymatic assay (DiFMUP substrate, IRS1 peptide activation)). Settings: SHP2 wt; activated by 500 nM IRS1 peptide; 75 μM DiFMUP substrate.
T1 construct: synthetized by Origene, Met1-Leu525, cat #TP750155; purchased Origene TP750155
T1 sequence (Q06124 1-525): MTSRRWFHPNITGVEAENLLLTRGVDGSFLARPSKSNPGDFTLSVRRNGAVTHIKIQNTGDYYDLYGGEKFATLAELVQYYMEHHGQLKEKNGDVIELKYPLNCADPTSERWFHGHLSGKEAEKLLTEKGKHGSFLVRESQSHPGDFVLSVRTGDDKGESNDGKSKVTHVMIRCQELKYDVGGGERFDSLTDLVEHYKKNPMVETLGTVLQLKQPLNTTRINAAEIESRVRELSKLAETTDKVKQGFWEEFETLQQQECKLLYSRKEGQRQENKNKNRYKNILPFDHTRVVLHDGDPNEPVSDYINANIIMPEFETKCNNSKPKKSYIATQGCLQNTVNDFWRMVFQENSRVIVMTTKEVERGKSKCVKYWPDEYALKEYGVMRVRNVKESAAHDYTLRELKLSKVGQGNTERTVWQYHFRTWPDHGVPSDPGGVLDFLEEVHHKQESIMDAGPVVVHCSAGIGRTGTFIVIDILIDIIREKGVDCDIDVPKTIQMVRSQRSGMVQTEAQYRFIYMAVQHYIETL
Assay type: biochemical
Procedure, shortened: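 SHP-2 (Met1-Leu525, 0.5 nM final) preincubated 30 min with compounds and IRS1 activating peptide in HEPES pH 7.2 buffer with NaCl, KCl, EDTA, tween-20, 5 mM DTT. DiFMUP then added for 30 min at room temperature and fluorescence read. IC50 from four-parameter logistic fit of % inhibition.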

Row | IC50 | Compound
1 | 0.5 to 3 µM | FC(F)(F)c1ncccc1Sc1cnc2[nH]c(Nc3ccc4n[nH]cc4c3)nc2n1 [Example 50, N-(2H-indazol-5-yl)-5-((2-(trifluoromethyl)pyridin-3-yl)thio)-1H-imidazo[4,5-b]pyrazin-2-amine]
2 | 0.5 to 3 µM | Cc1nc(-c2cccc(Sc3cnc4[nH]c(N5CCC(C)(N)CC5)nc4n3)c2)cs1 [Example 48, 4-methyl-1-(5-((3-(2-methylthiazol-4-yl)phenyl)thio)-1H-imidazo[4,5-b]pyrazin-2-yl)piperidin-4-amine]
3 | 0.5 to 3 µM | COC(=O)c1ccccc1Sc1cnc2[nH]c(N3CCC(C)(N)CC3)nc2n1 [Example 78, methyl 2-((2-(4-amino-4-methylpiperidin-1-yl)-1H-imidazo[4,5-b]pyrazin-5-yl)thio)benzoate]
4 | > 3 µM | CC(C)(CNc1nc2nc(Sc3cccnc3C(F)(F)F)cnc2[nH]1)N1CCOCC1 [Example 87, N-(2-methyl-2-morpholinopropyl)-5-((2-(trifluoromethyl)pyridin-3-yl)thio)-1H-imidazo[4,5-b]pyrazin-2-amine]
5 | > 3 µM | CCn1c(N2CCC(C)(N)CC2)nc2ncc(Sc3cccnc3C(F)(F)F)nc21 [Example 72, 1-(1-ethyl-6-((2-(trifluoromethyl)pyridin-3-yl)thio)-1H-imidazo[4,5-b]pyrazin-2-yl)-4-methylpiperidin-4-amine]
6 | > 3 µM | Cc1ccsc1Sc1cnc2[nH]c(N3CCC(C)(N)CC3)nc2n1 [Example 68, 4-methyl-1-(5-((3-methylthiophen-2-yl)thio)-1H-imidazo[4,5-b]pyrazin-2-yl)piperidin-4-amine]
7 | 0.5 to 3 µM | CC(N)C1CN(c2nc3nc(Sc4cccnc4C(F)(F)F)cnc3[nH]2)CCO1 (stereo not shown) [Example 86, 1-(4-(5-((2-(trifluoromethyl)pyridin-3-yl)thio)-1H-imidazo[4,5-b]pyrazin-2-yl)morpholin-2-yl)ethan-1-amine]
8 | > 3 µM | NC1CCC2OC1CC2Nc1nc2nc(Sc3cccnc3C(F)(F)F)cnc2[nH]1 (stereo not shown) [Example 109, N6-(5-((2-(trifluoromethyl)pyridin-3-yl)thio)-1H-imidazo[4,5-b]pyrazin-2-yl)-8-oxabicyclo[3.2.1]octane-2,6-diamine]
9 | 0.5 to 3 µM | CC1(N)CCN(c2nc3nc(Sc4nc5ccccc5c(=O)[nH]4)cnc3[nH]2)CC1 [Example 91, 2-((2-(4-amino-4-methylpiperidin-1-yl)-1H-imidazo[4,5-b]pyrazin-5-yl)thio)quinazolin-4(3H)-one]
10 | > 3 µM | FC(F)(F)c1ncccc1Sc1cnc2[nH]c(NCC3COCCN3)nc2n1 (stereo not shown) [Example 111, N-(morpholin-3-ylmethyl)-5-((2-(trifluoromethyl)pyridin-3-yl)thio)-1H-imidazo[4,5-b]pyrazin-2-amine]
11 | 0.5 to 3 µM | CC1(N)CCN(c2nc3nc(Sc4cccc(S(F)(F)(F)(F)F)c4)cnc3[nH]2)CC1 [Example 93, 4-methyl-1-(5-((3-(pentafluoro-l6-sulfaneyl)phenyl)thio)-1H-imidazo[4,5-b]pyrazin-2-yl)piperidin-4-amine]
12 | 0.5 to 3 µM | NCC1CCN(c2nc3nc(Sc4cccnc4C(F)(F)F)cnc3[nH]2)CC1 [Example 8, (1-(5-((2-(trifluoromethyl)pyridin-3-yl)thio)-1H-imidazo[4,5-b]pyrazin-2-yl)piperidin-4-yl)methanamine]
13 | > 3 µM | Nc1cnc2c(c1)CN(c1nc3nc(Sc4cccnc4C(F)(F)F)cnc3[nH]1)CC2 [Example 108, 6-(5-((2-(trifluoromethyl)pyridin-3-yl)thio)-1H-imidazo[4,5-b]pyrazin-2-yl)-5,6,7,8-tetrahydro-1,6-naphthyridin-3-amine]

Continued, compound first:

Row | Compound | IC50
14 | CC1(N)CCN(c2nc3nc(Sc4ccc(F)cc4F)cnc3[nH]2)CC1 [Example 20, 1-(5-((2,4-difluorophenyl)thio)-1H-imidazo[4,5-b]pyrazin-2-yl)-4-methylpiperidin-4-amine] | < 0.5 µM
15 | FC(F)(F)c1ncccc1Sc1cnc2[nH]c(NCCc3cn4ccccc4n3)nc2n1 [Example 43, N-(2-(imidazo[1,2-a]pyridin-2-yl)ethyl)-5-((2-(trifluoromethyl)pyridin-3-yl)thio)-1H-imidazo[4,5-b]pyrazin-2-amine] | 0.5 to 3 µM
16 | COc1ccc2nc(Sc3cnc4[nH]c(N5CCC(C)(N)CC5)nc4n3)ccc2c1 [Example 69, 1-(5-((6-methoxyquinolin-2-yl)thio)-1H-imidazo[4,5-b]pyrazin-2-yl)-4-methylpiperidin-4-amine] | 0.5 to 3 µM
17 | OCCN1CCC(CNc2nc3nc(Sc4cccnc4C(F)(F)F)cnc3[nH]2)CC1 [Example 82, 2-(4-(((5-((2-(trifluoromethyl)pyridin-3-yl)thio)-1H-imidazo[4,5-b]pyrazin-2-yl)amino)methyl)piperidin-1-yl)ethan-1-ol] | > 3 µM
18 | OC1CCN(c2nc3nc(Sc4cccnc4C(F)(F)F)cnc3[nH]2)CC1 [Example 41, 1-(5-((2-(trifluoromethyl)pyridin-3-yl)thio)-1H-imidazo[4,5-b]pyrazin-2-yl)piperidin-4-ol] | > 3 µM
19 | CC1(N)CCN(c2nc3nc(Sc4cccc(C(=O)O)c4)cnc3[nH]2)CC1 [Example 94, 3-((2-(4-amino-4-methylpiperidin-1-yl)-1H-imidazo[4,5-b]pyrazin-5-yl)thio)benzoic acid] | < 0.5 µM
20 | CC1(N)CCN(c2nc3ncc(Sc4ccccc4)nc3[nH]2)CC1 [Example 11, 4-methyl-1-(6-(phenylthio)-1H-imidazo[4,5-b]pyrazin-2-yl)piperidin-4-amine] | 0.5 to 3 µM
21 | CC1(N)CCN(c2nc3nc(Sc4ccccc4C#N)cnc3[nH]2)CC1 [Example 23, 2-((2-(4-amino-4-methylpiperidin-1-yl)-1H-imidazo[4,5-b]pyrazin-5-yl)thio)benzonitrile] | < 0.5 µM
22 | FC(F)(F)c1ncccc1Sc1cnc2[nH]c(N3CCCCC3)nc2n1 [Example 31, 2-(piperidin-1-yl)-5-((2-(trifluoromethyl)pyridin-3-yl)thio)-1H-imidazo[4,5-b]pyrazine] | 0.5 to 3 µM
23 | COc1ccccc1Sc1cnc2[nH]c(N3CCC(C)(N)CC3)nc2n1 [Example 24, 1-(5-((2-methoxyphenyl)thio)-1H-imidazo[4,5-b]pyrazin-2-yl)-4-methylpiperidin-4-amine] | < 0.5 µM
24 | CS(=O)(=O)NC1CCN(c2nc3nc(Sc4cccnc4C(F)(F)F)cnc3[nH]2)CC1 [Example 40, N-(1-(5-((2-(trifluoromethyl)pyridin-3-yl)thio)-1H-imidazo[4,5-b]pyrazin-2-yl)piperidin-4-yl)methanesulfonamide] | > 3 µM
25 | NC1CCN(c2nc3nc(Sc4cccnc4C(F)(F)F)cnc3[nH]2)CC1 [Example 7, 1-(5-((2-(trifluoromethyl)pyridin-3-yl)thio)-1H-imidazo[4,5-b]pyrazin-2-yl)piperidin-4-amine] | 0.5 to 3 µM
26 | CC1(N)CCN(c2nc3nc(Sc4cccnc4C(F)(F)F)cnc3s2)CC1 [Example 119, 4-methyl-1-(5-((2-(trifluoromethyl)pyridin-3-yl)thio)thiazolo[4,5-b]pyrazin-2-yl)piperidin-4-amine] | 0.5 to 3 µM
27 | CC1(N)CCN(c2nc3nc(Sc4cccc5[nH]cnc45)cnc3[nH]2)CC1 [Example 116] | 0.5 to 3 µM
28 | CC1(N)CCN(c2nc3nc(Sc4ccc(C#N)cc4C(F)(F)F)cnc3[nH]2)CC1 [Example 19, 4-((2-(4-amino-4-methylpiperidin-1-yl)-1H-imidazo[4,5-b]pyrazin-5-yl)thio)-3-(trifluoromethyl)benzonitrile] | < 0.5 µM
29 | FC(F)(F)c1ncccc1Sc1cnc2[nH]c(NCc3cccnc3N3CCOCC3)nc2n1 [Example 112, N-((2-morpholinopyridin-3-yl)methyl)-5-((2-(trifluoromethyl)pyridin-3-yl)thio)-1H-imidazo[4,5-b]pyrazin-2-amine] | > 3 µM
30 | COc1cccc(Sc2cnc3[nH]c(N4CCC(C)(N)CC4)nc3n2)c1 [Example 25, 1-(5-((3-methoxyphenyl)thio)-1H-imidazo[4,5-b]pyrazin-2-yl)-4-methylpiperidin-4-amine] | 0.5 to 3 µM
31 | NC1CCCN(c2nc3nc(Sc4cccnc4C(F)(F)F)cnc3[nH]2)C1 (stereo not shown) [Example 33, 1-(5-((2-(trifluoromethyl)pyridin-3-yl)thio)-1H-imidazo[4,5-b]pyrazin-2-yl)piperidin-3-amine] | < 0.5 µM
32 | CC(C)c1ccccc1Sc1cnc2[nH]c(N3CCC(C)(N)CC3)nc2n1 [Example 115, 1-(5-((2-isopropylphenyl)thio)-1H-imidazo[4,5-b]pyrazin-2-yl)-4-methylpiperidin-4-amine] | 0.5 to 3 µM
33 | Cn1cnc(C2CCN(c3nc4nc(Sc5cccnc5C(F)(F)F)cnc4[nH]3)CC2)c1 [Example 53, 2-(4-(1-methyl-1H-imidazol-4-yl)piperidin-1-yl)-5-((2-(trifluoromethyl)pyridin-3-yl)thio)-1H-imidazo[4,5-b]pyrazine] | > 3 µM
34 | CC1(N)CCN(c2nc3nc(Sc4ccncc4Cl)cnc3[nH]2)CC1 [Example 28, 1-(5-((3-chloropyridin-4-yl)thio)-1H-imidazo[4,5-b]pyrazin-2-yl)-4-methylpiperidin-4-amine] | < 0.5 µM
